Experimental data as given in ChEMBL document CHEMBL1201862, “PubChem BioAssay data set” (2004).
Blank lines part the entries; values can stand above or below the molecule they belong to. Activity calls are given as the source filed them.

Experiments:
[1] = molecular target: Glucose-6-phosphate 1-dehydrogenase (Homo sapiens, UniProt P11413); assay: inhibition of Homo sapiens G6PD, dose series – biochemical, fluorescence, selectivity assay for P. falciparum G6PD inhibitor project, dose response (AID 504792); type: functional
[2] = molecular target: T1, Tyrosine-protein phosphatase non-receptor type 11 (Homo sapiens, UniProt Q06124); assay: PTPN11 enzyme inhibitors – biochemical, selectivity assay for STEP inhibitor project, dose response (AID 602367); type: functional; conditions: read-out: IC50_Mean
T1 sequence (Q06124 whole entry): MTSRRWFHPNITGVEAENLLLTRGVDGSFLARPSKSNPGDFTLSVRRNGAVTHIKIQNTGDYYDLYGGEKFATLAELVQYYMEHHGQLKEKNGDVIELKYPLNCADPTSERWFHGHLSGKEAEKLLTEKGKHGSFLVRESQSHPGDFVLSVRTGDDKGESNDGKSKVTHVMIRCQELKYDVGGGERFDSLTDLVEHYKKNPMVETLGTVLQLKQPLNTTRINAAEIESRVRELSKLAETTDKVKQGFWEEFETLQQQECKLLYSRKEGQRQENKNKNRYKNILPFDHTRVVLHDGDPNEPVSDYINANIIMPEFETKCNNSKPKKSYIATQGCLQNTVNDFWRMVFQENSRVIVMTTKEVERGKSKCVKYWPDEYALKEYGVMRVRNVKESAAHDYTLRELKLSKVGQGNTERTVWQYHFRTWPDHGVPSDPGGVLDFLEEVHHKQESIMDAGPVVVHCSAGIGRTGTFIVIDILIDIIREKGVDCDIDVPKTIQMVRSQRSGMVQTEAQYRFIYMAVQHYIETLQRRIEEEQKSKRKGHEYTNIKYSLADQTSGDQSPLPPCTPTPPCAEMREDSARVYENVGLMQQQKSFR

[3] = molecular target: T2, Tyrosine-protein phosphatase non-receptor type 5 (Homo sapiens, UniProt P54829); assay: PTPN5 enzyme inhibition – biochemical, fluorescence intensity, uHTS hits, confirmation (AID 602372); type: functional; conditions: read-out: IC50_Mean
T2 sequence (P54829 whole entry): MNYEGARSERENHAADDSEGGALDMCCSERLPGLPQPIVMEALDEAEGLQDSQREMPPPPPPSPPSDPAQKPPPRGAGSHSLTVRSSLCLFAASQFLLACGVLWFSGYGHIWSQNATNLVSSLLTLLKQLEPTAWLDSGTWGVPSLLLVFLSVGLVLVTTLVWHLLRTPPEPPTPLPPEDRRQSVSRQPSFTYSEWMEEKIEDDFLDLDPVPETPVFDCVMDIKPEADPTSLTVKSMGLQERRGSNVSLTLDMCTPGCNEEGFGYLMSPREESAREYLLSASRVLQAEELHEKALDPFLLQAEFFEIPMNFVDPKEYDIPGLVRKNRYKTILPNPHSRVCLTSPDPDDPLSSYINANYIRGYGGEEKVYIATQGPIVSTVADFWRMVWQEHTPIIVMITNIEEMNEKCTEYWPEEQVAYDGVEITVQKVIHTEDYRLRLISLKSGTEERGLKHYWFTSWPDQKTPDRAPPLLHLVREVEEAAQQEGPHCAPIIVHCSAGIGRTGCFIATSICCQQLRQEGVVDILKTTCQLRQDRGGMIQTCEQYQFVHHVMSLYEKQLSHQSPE

[4] = molecular target: Dual specificity protein phosphatase 3 (Homo sapiens, UniProt P51452); assay: VHR phosphatase inhibition, dose response, selectivity assay for STEP inhibitor project, biochemical (AID 602374); type: functional; conditions: read-out: IC50_Mean
[5] = molecular target: FAD-linked sulfhydryl oxidase ALR (Homo sapiens, UniProt P55789); assay: ALR-catalysed DTT oxidation blockers – biochemical, H2O2 detection, luminescence, cherry-pick, dose response (AID 493248)
[6] = molecular target: T3, Sentrin-specific protease 1 (Homo sapiens, UniProt Q9P0U3); assay: Dose response confirmation of small molecule inhibitors of the catalytic domain of the SUMO protease, SENP1 in a FRET assay.; type: functional; conditions: read-out: IC50_Mean
T3 sequence (Q9P0U3 whole entry): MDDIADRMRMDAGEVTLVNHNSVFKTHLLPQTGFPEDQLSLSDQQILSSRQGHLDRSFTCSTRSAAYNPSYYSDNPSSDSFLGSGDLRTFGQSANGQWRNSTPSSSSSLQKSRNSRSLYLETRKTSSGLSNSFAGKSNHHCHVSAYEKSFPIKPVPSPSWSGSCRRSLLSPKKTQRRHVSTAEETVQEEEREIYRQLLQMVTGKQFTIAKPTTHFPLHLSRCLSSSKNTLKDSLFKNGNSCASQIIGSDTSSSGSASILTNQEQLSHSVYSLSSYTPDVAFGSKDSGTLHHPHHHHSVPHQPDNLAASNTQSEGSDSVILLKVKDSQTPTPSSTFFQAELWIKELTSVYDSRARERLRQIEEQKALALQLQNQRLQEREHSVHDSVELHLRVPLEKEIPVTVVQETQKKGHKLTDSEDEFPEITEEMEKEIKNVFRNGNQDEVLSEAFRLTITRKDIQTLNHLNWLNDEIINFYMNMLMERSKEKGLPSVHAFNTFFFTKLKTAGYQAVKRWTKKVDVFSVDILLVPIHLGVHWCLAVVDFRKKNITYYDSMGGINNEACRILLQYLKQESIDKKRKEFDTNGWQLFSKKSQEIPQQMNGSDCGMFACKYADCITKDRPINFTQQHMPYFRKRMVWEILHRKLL

[7] = molecular target: T4, Low molecular weight phosphotyrosine protein phosphatase (Homo sapiens, UniProt P24666); type: functional; conditions: read-out: IC50_Mean;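 note: Dose-response confirmation assay measuring inhibition of LMPTP enzyme activity by fluorescence intensity read-out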
T4 sequence (P24666 whole entry): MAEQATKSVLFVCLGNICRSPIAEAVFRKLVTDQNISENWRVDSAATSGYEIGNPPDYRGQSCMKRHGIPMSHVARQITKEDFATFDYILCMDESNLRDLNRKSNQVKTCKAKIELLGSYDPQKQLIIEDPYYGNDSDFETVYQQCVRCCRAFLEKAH

Melanocortin receptor 4 = Melanocortin receptor 4 (Homo sapiens, UniProt P32245); type: functional, cell-based;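 note: Cell-based assay with luminescence read-out, confirmatory dose-response testing for agonist activity of biased ligands at MC4R; human U2OS cells with tagged receptor and beta-arrestin; potency of agonists that increase receptor coupling to beta-arrestin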
[8] = molecular target: T5, RNA-binding protein pos-1 (Caenorhabditis elegans, UniProt G5EF15); assay: disruptors of C. elegans POS-1 RNA interaction – biochemical, fluorescence polarization, dose response (AID 1964);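 note: purified POS-1 fused to maltose binding protein made in E. coli; potency of compounds blocking POS-1 binding to fluorescent RNA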
T5 sequence (G5EF15 whole entry): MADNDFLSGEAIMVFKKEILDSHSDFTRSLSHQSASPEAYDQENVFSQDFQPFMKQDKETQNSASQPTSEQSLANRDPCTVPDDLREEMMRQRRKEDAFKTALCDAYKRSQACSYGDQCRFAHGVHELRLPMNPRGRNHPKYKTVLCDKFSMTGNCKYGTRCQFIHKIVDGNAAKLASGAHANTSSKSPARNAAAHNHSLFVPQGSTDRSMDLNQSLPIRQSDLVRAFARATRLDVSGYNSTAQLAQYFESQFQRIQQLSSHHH

[9] = molecular target: T6, Zinc finger protein mex-5 (Caenorhabditis elegans, UniProt Q9XUB2); assay: potency of MEX-5 RNA-binding blockers – biochemical, C. elegans, fluorescence polarization, dose response (AID 1960)
T6 sequence (Q9XUB2 whole entry): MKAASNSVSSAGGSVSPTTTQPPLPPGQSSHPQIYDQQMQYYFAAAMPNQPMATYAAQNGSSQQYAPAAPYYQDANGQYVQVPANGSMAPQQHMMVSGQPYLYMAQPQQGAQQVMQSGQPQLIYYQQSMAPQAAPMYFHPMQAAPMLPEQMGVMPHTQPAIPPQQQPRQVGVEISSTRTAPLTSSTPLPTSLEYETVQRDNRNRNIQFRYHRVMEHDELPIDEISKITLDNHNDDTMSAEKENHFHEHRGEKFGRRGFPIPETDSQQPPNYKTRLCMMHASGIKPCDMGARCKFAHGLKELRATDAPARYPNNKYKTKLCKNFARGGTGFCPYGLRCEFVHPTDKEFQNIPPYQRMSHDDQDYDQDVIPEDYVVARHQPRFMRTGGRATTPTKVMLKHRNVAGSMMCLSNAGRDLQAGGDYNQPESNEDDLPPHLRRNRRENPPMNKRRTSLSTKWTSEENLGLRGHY

[10] = molecular target: T7, Calpain-2 catalytic subunit (Sus scrofa, UniProt P43367); assay: m-calpain protease blockers, concentration series – biochemical, fluorogenic peptide substrate, dose response (AID 1420); type: functional
T7 sequence (P43367 whole entry): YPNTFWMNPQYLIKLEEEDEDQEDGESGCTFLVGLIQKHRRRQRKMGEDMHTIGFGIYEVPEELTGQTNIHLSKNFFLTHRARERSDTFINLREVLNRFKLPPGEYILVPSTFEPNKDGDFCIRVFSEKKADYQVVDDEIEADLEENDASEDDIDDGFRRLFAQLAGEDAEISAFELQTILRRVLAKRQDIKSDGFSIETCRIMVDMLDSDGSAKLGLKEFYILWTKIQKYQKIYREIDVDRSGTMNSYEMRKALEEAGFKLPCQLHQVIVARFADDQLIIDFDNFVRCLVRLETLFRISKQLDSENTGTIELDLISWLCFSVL

Cysteine protease ATG4B = molecular target: T8, Cysteine protease ATG4B (Homo sapiens, UniProt Q9Y4P1); type: functional;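 note: Fluorescence-based dose-response confirmation assay measuring inhibition of ATG4B activity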
T8 sequence (Q9Y4P1 whole entry): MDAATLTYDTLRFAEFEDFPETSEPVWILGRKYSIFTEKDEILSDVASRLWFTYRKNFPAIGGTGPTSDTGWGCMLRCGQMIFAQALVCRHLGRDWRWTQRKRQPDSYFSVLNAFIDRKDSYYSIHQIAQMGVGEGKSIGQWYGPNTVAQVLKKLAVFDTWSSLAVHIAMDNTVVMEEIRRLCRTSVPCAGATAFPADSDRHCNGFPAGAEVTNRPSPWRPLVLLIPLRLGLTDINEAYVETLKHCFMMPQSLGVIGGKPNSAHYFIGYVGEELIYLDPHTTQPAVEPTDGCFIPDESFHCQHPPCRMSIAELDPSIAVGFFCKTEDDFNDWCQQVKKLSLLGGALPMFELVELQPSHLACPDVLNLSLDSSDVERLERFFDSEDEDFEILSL

Phospholipase A2 = Phospholipase A2 (Homo sapiens, UniProt P04054); type: functional;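 note: confirmatory dose-response counterscreen on phospholipase A2, testing hits that came from an ultra-high-throughput screen for ATG4B inhibitors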
[11] = molecular target: T9, Histone-lysine N-methyltransferase NSD2 (Homo sapiens, UniProt O96028); type: biochemical
T9 sequence (O96028 whole entry): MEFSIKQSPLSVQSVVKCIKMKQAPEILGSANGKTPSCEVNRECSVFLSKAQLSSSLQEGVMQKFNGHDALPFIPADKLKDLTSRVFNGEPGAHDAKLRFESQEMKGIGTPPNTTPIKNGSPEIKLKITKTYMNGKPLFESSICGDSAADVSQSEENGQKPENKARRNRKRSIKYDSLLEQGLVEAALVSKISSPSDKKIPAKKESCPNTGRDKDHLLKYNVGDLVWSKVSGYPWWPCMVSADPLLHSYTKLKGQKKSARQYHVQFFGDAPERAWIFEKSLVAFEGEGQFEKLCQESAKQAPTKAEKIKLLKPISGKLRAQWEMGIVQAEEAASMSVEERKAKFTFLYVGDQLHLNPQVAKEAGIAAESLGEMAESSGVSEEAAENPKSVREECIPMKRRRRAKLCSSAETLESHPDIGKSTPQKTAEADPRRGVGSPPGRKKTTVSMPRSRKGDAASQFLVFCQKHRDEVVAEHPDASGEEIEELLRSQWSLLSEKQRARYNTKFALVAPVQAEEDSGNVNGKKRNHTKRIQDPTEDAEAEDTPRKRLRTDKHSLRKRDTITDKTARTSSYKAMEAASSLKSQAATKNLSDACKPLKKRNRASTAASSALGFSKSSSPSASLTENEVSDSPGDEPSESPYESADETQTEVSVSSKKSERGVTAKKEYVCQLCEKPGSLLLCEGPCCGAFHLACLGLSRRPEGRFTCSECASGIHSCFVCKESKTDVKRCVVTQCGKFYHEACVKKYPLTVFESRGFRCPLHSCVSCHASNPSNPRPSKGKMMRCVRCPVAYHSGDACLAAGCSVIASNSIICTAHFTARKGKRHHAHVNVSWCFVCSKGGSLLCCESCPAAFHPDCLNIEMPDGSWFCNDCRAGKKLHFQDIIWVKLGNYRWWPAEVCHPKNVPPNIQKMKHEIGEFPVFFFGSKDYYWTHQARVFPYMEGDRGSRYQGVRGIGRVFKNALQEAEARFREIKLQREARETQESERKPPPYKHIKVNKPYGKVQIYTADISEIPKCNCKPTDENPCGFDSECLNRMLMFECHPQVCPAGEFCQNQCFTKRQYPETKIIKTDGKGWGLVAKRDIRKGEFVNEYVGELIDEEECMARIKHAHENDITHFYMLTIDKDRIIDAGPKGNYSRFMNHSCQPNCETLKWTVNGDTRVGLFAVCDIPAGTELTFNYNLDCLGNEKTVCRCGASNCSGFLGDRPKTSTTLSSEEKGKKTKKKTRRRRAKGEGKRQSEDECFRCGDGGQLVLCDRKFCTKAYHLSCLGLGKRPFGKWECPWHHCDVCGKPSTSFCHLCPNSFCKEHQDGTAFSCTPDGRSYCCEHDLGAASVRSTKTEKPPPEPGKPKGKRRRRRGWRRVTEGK

P388/ADR = assay: cells; type: functional; conditions: Mus musculus

Melanocortin receptor 4, sequence (P32245 whole entry, the tested form may be a part): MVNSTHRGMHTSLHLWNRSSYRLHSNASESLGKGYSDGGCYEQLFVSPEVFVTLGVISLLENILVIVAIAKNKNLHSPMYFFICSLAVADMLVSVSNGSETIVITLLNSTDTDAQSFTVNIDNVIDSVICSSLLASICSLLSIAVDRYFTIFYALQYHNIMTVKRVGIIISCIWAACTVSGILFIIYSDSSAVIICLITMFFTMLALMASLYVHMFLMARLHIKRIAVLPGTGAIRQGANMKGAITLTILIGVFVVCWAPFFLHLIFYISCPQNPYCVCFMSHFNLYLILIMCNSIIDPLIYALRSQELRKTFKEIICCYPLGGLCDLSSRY
Dual specificity protein phosphatase 3, sequence (P51452 whole entry): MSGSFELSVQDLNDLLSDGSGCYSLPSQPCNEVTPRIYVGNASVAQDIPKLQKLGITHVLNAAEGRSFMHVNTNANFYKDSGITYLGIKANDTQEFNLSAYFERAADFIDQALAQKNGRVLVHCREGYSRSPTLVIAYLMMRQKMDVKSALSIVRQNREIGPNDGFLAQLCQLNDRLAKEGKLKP
Glucose-6-phosphate 1-dehydrogenase, sequence (P11413 whole entry): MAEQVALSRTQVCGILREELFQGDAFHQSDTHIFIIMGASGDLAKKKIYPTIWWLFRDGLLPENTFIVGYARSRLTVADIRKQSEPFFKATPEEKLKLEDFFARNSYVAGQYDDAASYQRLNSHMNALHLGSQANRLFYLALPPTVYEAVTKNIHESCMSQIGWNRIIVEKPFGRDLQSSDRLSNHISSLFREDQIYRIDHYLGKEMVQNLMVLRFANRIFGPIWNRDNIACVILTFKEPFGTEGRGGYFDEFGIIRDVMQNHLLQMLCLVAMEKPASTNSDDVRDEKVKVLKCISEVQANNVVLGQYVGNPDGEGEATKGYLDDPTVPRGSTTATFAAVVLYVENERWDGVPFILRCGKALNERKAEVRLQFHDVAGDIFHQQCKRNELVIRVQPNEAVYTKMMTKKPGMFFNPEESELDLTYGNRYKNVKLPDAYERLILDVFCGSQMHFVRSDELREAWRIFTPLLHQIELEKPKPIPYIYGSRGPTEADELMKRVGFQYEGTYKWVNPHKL
Phospholipase A2, sequence (P04054 whole entry): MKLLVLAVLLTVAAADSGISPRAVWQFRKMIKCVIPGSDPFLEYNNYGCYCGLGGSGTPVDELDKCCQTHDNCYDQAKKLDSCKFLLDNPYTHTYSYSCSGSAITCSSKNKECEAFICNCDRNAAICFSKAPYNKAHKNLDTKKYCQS
FAD-linked sulfhydryl oxidase ALR, sequence (P55789 whole entry, the tested form may be a part): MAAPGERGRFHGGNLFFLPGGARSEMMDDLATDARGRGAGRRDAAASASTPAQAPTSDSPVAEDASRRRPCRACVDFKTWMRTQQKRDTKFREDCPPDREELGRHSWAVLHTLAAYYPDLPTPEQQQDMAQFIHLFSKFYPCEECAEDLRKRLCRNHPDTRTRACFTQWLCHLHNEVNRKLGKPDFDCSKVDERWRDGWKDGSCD

Compound: Cn1c(=O)[nH]c(=O)c2c1nc(SCCN1CCCCC1)n2CCCc1ccccc1
- IC50 [1]: > 80 µM (inactive)
- IC50 [2]: 0.599 µM (active)
- IC50 [3]: 34.9 µM (inactive)
- IC50 [4]: 570 nM (active)

Compound: CSc1sc(-c2nnc(S)n2C)c2c1C=CCC2
- IC50 [7]: 38.2 µM (inactive)

Compound: COCCNC(=O)c1cccc2c1C(=O)c1ccc(N3CCOCC3)cc1S2(=O)=O
- IC50 [6]: 14.1 µM (active)

Compound: Cc1ccccc1NC1=NC(=O)/C(=C/c2cccn2-c2cccc(C(=O)O)c2)S1
- EC50 [8]: > 300 µM (not active)
- EC50 [9]: 70 µM (active)
- IC50 [10]: 1.09 µM (not active)
- IC50 (Cysteine protease ATG4B): 10.2 µM (active)
- IC50 (Phospholipase A2): 8.6 µM (active)
- AC50 [11]: > 20 µM (inactive)

Compound: COc1cccc2c1C(=O)c1c(O)c3c(c(O)c1C2=O)C[C@@](O)(C(C)=O)C[C@@H]3OC1CC(O)C(O)C(C)O1 (stereo partly specified)
- GI50 (P388/ADR): 293 nM (active)

Compound: COc1ccc2c(c1)CCc1c(C(=O)Nc3ccn(Cc4ccc(C)cc4)n3)noc1-2
- EC50 (Melanocortin receptor 4): > 89.2 µM (inactive)

The next lines start with the values.

- IC50 [2]: 11.8 µM (active)
- IC50 [3]: 36.1 µM (inactive)
- IC50 [4]: 3080 nM (active)
Compound: O=C(NCCCn1ccnc1)C(Cc1ccccc1)N1C(=O)c2ccccc2C1=O (stereo unspecified)

- AC50 [5]: 509 nM (active)
- IC50 [6]: 37.8 µM (inactive)
Compound: Nc1cc([N+](=O)[O-])ccc1Nc1ccccc1

- EC50 (Melanocortin receptor 4): > 89.2 µM (inactive)
Compound: Cc1ccc(C(=O)NCCNc2nc3cc(C)c(C)cc3cc2C)cc1

- EC50 (Melanocortin receptor 4): > 89.2 µM (inactive)
Compound: O=C(CCN1C(=O)/C(=C/C=C/c2ccccc2)SC1=S)Nc1ccccn1
